# Tested on: α7 integrin promoter
# Assay: muscle cell-based assay: α7βgal+/− myoblasts/myotubes, LacZ reporter, β-galactosidase cleavage of FDG
# Design: species or system mouse; Results in α7+/− β-galactosidase assay: scale not given here
# Details: for Results in α7+/− β-galactosidase assay: Myoblasts; for EC50: read-out: Fit LogAC50 (converted); for Fit Curve Class: key not given; for AC50: log of AC50, given with negative sign, unit of AC50 not given, read-out: Fit Log AC50 (converted); for Results in a α7+/− β-galactosidase assay, Myotubes, 0.5 uM: compound at 0.5 uM; for Results in a α7+/− β-galactosidase assay, Myotubes, 1 uM: compound at 1 uM; for Results in a α7+/− β-galactosidase assay, Myotubes, 5 uM: compound at 5 uM; for Results in a α7+/− β-galactosidase assay, Myotubes, 10 uM: compound at 10 uM; for Results in a α7+/− β-galactosidase assay, Myotubes, 20 uM: compound at 20 uM; for Results in a α7+/− β-galactosidase assay, Myotubes, 40 uM: compound at 40 uM
# Experimental: An α7 integrin null mouse was produced in which exon 1 of the gene encoding the α7 integrin was replaced by the LacZ reporter. In these mice, all the transcriptional regulatory elements of the α7 integrin promoter were retained, allowing β-galactosidase to report expression of 7 integrin. A primary myoblast cell line (designated α7βgal^+/−) isolated from 10 day old α7^+/− pups were analyzed for the ability of β-galactosidase to report α7 integrin expression. α7βgal^+/− myoblasts were differentiated and subjected to X-gal staining and western analysis (FIGS. 1A and 1B).
# The activity of the α7 integrin promoter was measured by β-galactosidase cleavage of the non-fluorescent compound fluorescein di-β-D-galactopyranoside (FDG) to fluorescein. This assay was used to screen compound libraries to identify molecules that up-regulate α7 integrin expression in muscle.
# Also evaluated was the effect of various isoforms of laminin and the ligand for α7β1 integrin on integrin expression. Positive hits were subjected to dose-response analysis, western analysis and a myostatin counterscreen (a negative regulator of muscle growth).
# [1] = Mus musculus, given as log AC50 (negative values)
# [2] = curve fit, activity at zero concentration
# [3] = Table 12, fitted activity at zero concentration
# [4] = Table 12 Compound data, concentration-response curve fit
smiles,measurement,setting,value
COc1ccc(/N=N/c2ccc(N)nc2N)cc1 [drawing 576],Results in α7+/− β-galactosidase assay,0.5 uM,0.2183
same,Results in α7+/− β-galactosidase assay,1 uM,0.2858
same,Results in α7+/− β-galactosidase assay,5 uM,0.06976
same,Results in α7+/− β-galactosidase assay,10 uM,0.01151
same,Results in α7+/− β-galactosidase assay,20 uM,0.0406
same,Results in α7+/− β-galactosidase assay,40 uM,−0.04372
CC1(C)Cc2c(cnn2-c2cccc(F)c2)C(NC(=O)CCc2cnccn2)C1 (stereo not drawn) [drawing 534],Results in α7+/− β-galactosidase assay,0.5 uM,0.2096
same,Results in α7+/− β-galactosidase assay,1 uM,0.1101
same,Results in α7+/− β-galactosidase assay,5 uM,−0.01619
same,Results in α7+/− β-galactosidase assay,10 uM,−0.03841
same,Results in α7+/− β-galactosidase assay,20 uM,0.02411
same,Results in α7+/− β-galactosidase assay,40 uM,−0.09429
COc1ccccc1C(=O)NCC(=O)/N=N/c1c(O)n(C(C)C)c2ccccc12 [Compound 139],EC50,[1],11.2 µM
same,Score,Table 12 compound data,42
same,Fit Curve Class,curve class number,2.1
same,Fit HillSlope,curve fit,4.5045
same,Fit Zero Activity [%],[2],14.712%
CN(C)S(=O)(=O)c1cccc(C(=O)Nc2ccc3c(c2)CCC3)c1 [Compound 8],AC50,"Mus musculus, Table 12",2.82 µM
same,Emax,"Mus musculus, read-out: Max Response [%]",94.3%
same,Fit HillSlope,"Table 12, curve fit",4.9549
same,Fit Zero Activity [%],[3],−15.6523%
same,Fit Curve Class,Table 12,1.1
same,Score,[4],85
COc1cc(C=O)ccc1OCC(=O)Nc1ccc2c(c1)OCO2 [drawing 425],"Results in a α7+/− β-galactosidase assay, Myotubes, 0.5 uM",,−0.1155
same,"Results in a α7+/− β-galactosidase assay, Myotubes, 1 uM",,−0.1633
same,"Results in a α7+/− β-galactosidase assay, Myotubes, 5 uM",,0.1998
same,"Results in a α7+/− β-galactosidase assay, Myotubes, 10 uM",,0.4511
same,"Results in a α7+/− β-galactosidase assay, Myotubes, 20 uM",,−0.2886
same,"Results in a α7+/− β-galactosidase assay, Myotubes, 40 uM",,0.003215
CC(C)N(CCO)C(=O)CCc1nnc(CCCc2ccccc2)o1 [Compound 199],EC50,[1],12.6 µM
same,Score,Table 12 compound data,42
same,Fit Curve Class,curve class number,2.2
same,Fit HillSlope,curve fit,1.2876
same,Fit Zero Activity [%],[2],0.1862%
O=S(=O)(N/C(=N/C1CCCCC1)c1ccccc1F)c1ccccc1 [Compound 156],EC50,[1],10 µM
same,Score,Table 12 compound data,42
same,Fit Curve Class,curve class number,2.2
same,Fit HillSlope,curve fit,2.5334
same,Fit Zero Activity [%],[2],−0.0336%
CCCCN1CC(=O)N2Cc3[nH]c4ccccc4c3C[C@H]2C1=O [drawing 478],"Results in a α7+/− β-galactosidase assay, Myotubes, 0.5 uM",,−0.1229
same,"Results in a α7+/− β-galactosidase assay, Myotubes, 1 uM",,−0.1432
same,"Results in a α7+/− β-galactosidase assay, Myotubes, 5 uM",,−0.3665
same,"Results in a α7+/− β-galactosidase assay, Myotubes, 10 uM",,−0.4899
same,"Results in a α7+/− β-galactosidase assay, Myotubes, 20 uM",,−0.2121
same,"Results in a α7+/− β-galactosidase assay, Myotubes, 40 uM",,−0.2272
CCc1nnc(NC(=O)c2ccc(S(=O)(=O)NCC(C)C)cc2)s1 [Compound 66],AC50,"Mus musculus, Table 12",12.6 µM
same,Fit HillSlope,"Table 12, curve fit",4.5045
same,Fit Zero Activity [%],[3],11.9175%
same,Fit Curve Class,Table 12,2.1
same,Score,[4],45
COC(=O)c1ccccc1NC(=O)c1cc[n+]([O-])cc1 [Compound 100],AC50,"Mus musculus, Table 12",3.98 µM
same,Fit HillSlope,"Table 12, curve fit",1.01
same,Fit Zero Activity [%],[3],−31.5116%
same,Fit Curve Class,Table 12,2.1
same,Score,[4],43
O=C(Nc1ccccc1F)c1ccc([N+](=O)[O-])s1 [Compound 81],AC50,"Mus musculus, Table 12",12.6 µM
same,Fit HillSlope,"Table 12, curve fit",4.5045
same,Fit Zero Activity [%],[3],3.1931%
same,Fit Curve Class,Table 12,2.1
same,Score,[4],44
CC(C)Oc1ccc(C(=O)/C=C2\C(=O)Nc3ccccc32)cc1 [drawing 323],"Results in a α7+/− β-galactosidase assay, Myotubes, 0.5 uM",,0.1381
same,"Results in a α7+/− β-galactosidase assay, Myotubes, 1 uM",,0.1721
same,"Results in a α7+/− β-galactosidase assay, Myotubes, 5 uM",,−0.09555
same,"Results in a α7+/− β-galactosidase assay, Myotubes, 10 uM",,−0.3062
same,"Results in a α7+/− β-galactosidase assay, Myotubes, 20 uM",,−0.7604
same,"Results in a α7+/− β-galactosidase assay, Myotubes, 40 uM",,−0.9215
COc1ccc(N2CCN(CCC3Oc4cc([N+](=O)[O-])ccc4NC3=O)CC2)cc1 (stereo not drawn) [Compound 194],Score,Table 12 compound data,42
same,Fit Curve Class,curve class number,2.2
same,Fit HillSlope,curve fit,1.7137
same,Fit Infinite Activity [%],"curve fit, activity at infinite concentration",73.9084%
same,Fit Zero Activity [%],[2],−2.9581%
same,Fit LogAC50,given as log AC50 (negative values),−5.05
N#Cc1nc(COc2ccccc2)oc1N1CCCC1 [drawing 466],"Results in a α7+/− β-galactosidase assay, Myotubes, 0.5 uM",,−0.1447
same,"Results in a α7+/− β-galactosidase assay, Myotubes, 1 uM",,−0.2423
same,"Results in a α7+/− β-galactosidase assay, Myotubes, 5 uM",,−0.3897
same,"Results in a α7+/− β-galactosidase assay, Myotubes, 10 uM",,−0.2892
same,"Results in a α7+/− β-galactosidase assay, Myotubes, 20 uM",,−0.5781
same,"Results in a α7+/− β-galactosidase assay, Myotubes, 40 uM",,−0.8948
N#C/C(=C/c1ccc(N2CCOCC2)o1)C(=O)Nc1ccccc1 [drawing 437],"Results in a α7+/− β-galactosidase assay, Myotubes, 0.5 uM",,−0.01316
same,"Results in a α7+/− β-galactosidase assay, Myotubes, 1 uM",,0.1058
same,"Results in a α7+/− β-galactosidase assay, Myotubes, 5 uM",,−0.1378
same,"Results in a α7+/− β-galactosidase assay, Myotubes, 10 uM",,−0.06524
same,"Results in a α7+/− β-galactosidase assay, Myotubes, 20 uM",,0.007978
same,"Results in a α7+/− β-galactosidase assay, Myotubes, 40 uM",,−0.03236
